{
  "source": "patent US20260256827A1",
  "about": "“Methods for treating lower back pain with hyaluronic acid” (priority 2023, published 2026)",
  "format_in_all_cases": "in vivo, human",
  "key": {"[1]": {"system": "peripheral neuropathy foot pain", "experiment": "Example 2 patient: treatment of peripheral neuropathy / foot pain", "settings": "75 mg bid from Nov. 9, 2023", "protocol": "Beginning on Oct. 2, 2023, the patient was treated for peripheral neuropathy lidocaine/prilocaine 2.5% cream applied to their feet bilaterally. […] 8, 2024."}, "[2]": {"system": "chronic, bilateral lower back pain", "experiment": "Example 2: HA injections, patient, pain severity on visual analog numerical rating scale", "settings": "75 mg bid from Nov. 9, 2023; recurrence reported Jan. 8, 2024", "protocol": "(§1) In the Examples, unless otherwise specified, pain severity was assessed using a visual analog numerical rating scale ranging from 0 (no pain) to 10 (worst pain possible), and hyaluronic acid (HA) injections (Hyalgan™, 10 mg/mL, MW: 500,000 to 730,000 Daltons in 2 mL pre-filled syringes) were administered using a 30 gauge, ½″ needle.\nOn Oct. 5, 2023, a patient reported chronic, bilateral lower back pain, and more recent onset of pain in their feet that slowly spread to their lower leg, but mostly resides on the plantar surface of their feet. The lower back pain severity was 7/10 (between severe and very severe) at rest, and up to 9/10 (between very severe and worse pain possible) after standing all day.\nOn Oct. […] The injection locations were determined by findings of focal tenderness of the palpated sites illustrated in FIG. 1.\nOn Oct. 12, 2023, patient reported maximum lower back pain severity of 5-6/10 (severe). […] These injection locations were again determined by findings of focal tenderness of palpated sites illustrated in FIG. 1.\nOn Jan. […] These injection locations were again determined by findings of focal tenderness of palpated sites illustrated in FIG. 1.\nOn Mar. […] These injection locations were again determined by findings of focal tenderness of palpated sites illustrated in FIG. 1."}, "[3]": {"system": "chronic low back pain", "experiment": "Example 4: Hyalgan injections, person, pain severity", "settings": "before Hyalgan", "protocol": "as §1\nHyaluronic acid injections were administered in the form of Hyalgan ([…]) along the lateral margin of the left PSIS (two injections; 1 mL each). […] […] received subsequent injections on this visit: again two injections of 1 mL each along the lateral margins of […] left PSIS."}, "[4]": {"system": "chronic lower back pain with enthesopathy", "experiment": "Example 3: HA injections, patient, pain severity on visual analog numerical rating scale", "settings": "tramadol and cyclobenzaprine together, before HA", "protocol": "as §1"}},
  "data": [
    {"smiles": "CC(C)C[C@H](CN)CC(=O)O", "note": "[pregabalin]", "values": [
      {"measurement": "effect on foot pain", "setting": "[1]", "result": "helpful"},
      {"measurement": "effect on recurrence of lower back pain", "setting": "[2]", "result": "did not prevent the recurrence"}
    ]},
    {"smiles": "CC(C)Cc1ccc(C(C)C(=O)O)cc1", "note": "(stereo not drawn) [ibuprofen]", "values": [
      {"measurement": "benefit of prior treatment for low back pain", "setting": "[3]", "result": "without benefit"}
    ]},
    {"smiles": "CN(C)CCC=C1c2ccccc2C=Cc2ccccc21", "note": "[cyclobenzaprine]", "values": [
      {"measurement": "benefit of prior treatment for low back pain", "setting": "[3]", "result": "without benefit"},
      {"measurement": "benefit of ongoing treatment for lower back pain", "setting": "[4]", "result": "helped only marginally"}
    ]},
    {"smiles": "COc1cccc(C2(O)CCCCC2CN(C)C)c1", "note": "(stereo not drawn) [tramadol]", "values": [
      {"measurement": "benefit of ongoing treatment for lower back pain", "setting": "[4]", "result": "helped only marginally"}
    ]}
  ]
}
